Assay results published in patent publication US11254690B2, “PTEFb inhibiting macrocyclic compounds” (BAYER AKTIENGESELLSCHAFT, priority 2017, dated 2022).

Tests used:
Type in all cases: cell-based
DU145 cells = test: Proliferation assay, DU145; conditions: Homo sapiens, DU-145, 96 h; 4 days, crystal violet; read-out: Inhibition of DU145 cell proliferation IC50
Procedure: (§1) Cultivated tumour cells (HeLa, human cervical tumour cells, ATCC CCL-2; NCI-H460, human non-small cell lung carcinoma cells, ATCC HTB-177; DU 145, hormone-independent human prostate carcinoma cells, ATCC HTB-81; HeLa-MaTu-ADR, multidrug-resistant human cervical carcinoma cells, EPO-GmbH Berlin; Caco-2, human colorectal carcinoma cells, ATCC HTB-37; B16F10, mouse melanoma cells, ATCC CRL-6475) were plated at a density of 5,000 cells/well (DU145, HeLa-MaTu-ADR), 3,000 cells/well (NCI-H460, HeLa), 1,500 cells/well (Caco-2), or 1,000 cells/well (B16F10) in a 96-well multititer plate in 200 μL of their respective growth medium supplemented 10% fetal calf serum. After 24 hours, the cells of one plate (zero-point plate) were stained with crystal violet (see below), while the medium of the other plates was supplemented with the test substances in various concentrations (0 μM, as well as in the range of 0.0001-10 μM; the final concentration of the solvent dimethyl sulfoxide was adjusted to 0.1%) using a Hewlett-Packard HP D300 Digital Dispenser. The cells were incubated for 4 days in the presence of test substances. Cell proliferation was determined by staining the cells with crystal violet: the cells were fixed by adding 20 μl/measuring point of an 11% glutaric aldehyde solution for 15 minutes at room temperature. After three washing cycles of the fixed cells with water, the plates were dried at room temperature. The cells were stained by adding 100 μl/measuring point of a 0.1% crystal violet solution (pH 3.0). After three washing cycles of the stained cells with water, the plates were dried at room temperature. The dye was dissolved by adding 100 μl/measuring point of a 10% acetic acid solution. The extinction was determined by photometry at a wavelength of 595 nm. The change of cell number, in percent, was calculated by normalization of the measured values to the extinction values of the zero-point plate (=0%) and the extinction of the untreated ([…]) cells (=100%). The IC50 values (inhibitory concentration at 50% of maximal effect) were determined by means of a 4 parameter fit. A2780 human ovarian carcinoma cells (ECACC #93112519) and non-adherent MOLM-13 human acute myeloid leukemia cells (DSMZ ACC 554) were seeded at a density of 3,000 cell/well (A2780) or 5,000 cells/well (MOLM-13) in a 96-well multititer plate in 150 μL of growth medium supplemented 10% fetal calf serum. After 24 hours, cell viability of one plate (zero-point plate) was determined with the Cell Titre-Glo Luminescent Cell Viability Assay (Promega), while the medium of the other plates was supplemented with the test substances in various concentrations (0 μM, as well as in the range of 0.0001-10 μM; the final concentration of the solvent dimethyl sulfoxide was adjusted to 0.1%) using a Hewlett-Packard HP D300 Digital Dispenser. Cell viability was assessed after 72-hour exposure with the Cell Titre-Glo Luminescent Cell Viability Assay (Promega). IC50 values (inhibitory concentration at 50% of maximal effect) were determined by means of a 4 parameter fit on measurement data which were normalized to vehicle (DMSO) treated cells (=100%) and measurement readings taken immediately before compound exposure (=0%).

MOLM-13 cells = test: Proliferation assay, MOLM-13; conditions: Homo sapiens, 72-hour exposure, Cell Titre-Glo, read-out: Inhibition of MOLM-13 cell proliferation IC50
Procedure: as §1

HeLa-MaTu-ADR cells = test: Proliferation assay, HeLa-MaTu-ADR; conditions: Homo sapiens, 96 h; 4 days, crystal violet; read-out: Inhibition of HeLa-MaTu-ADR cell proliferation IC50
Procedure: as §1

Caco-2 cells = test: Proliferation assay, Caco-2; conditions: Homo sapiens, Caco-2, 96 h; 4 days, crystal violet; read-out: Inhibition of Caco-2 cell proliferation IC50
Procedure: as §1

NCI-H460 cells = test: Proliferation assay, NCI-H460; conditions: Homo sapiens, NCI-H460, 96 h; 4 days, crystal violet; read-out: Inhibition of NCI-H460 cell proliferation IC50
Procedure: as §1

Compound: CS(=N)(=O)Cc1cc2nc(c1)OCCCCOc1cc(ccc1F)-c1cc(ncc1F)N2 (racemic) [Example 2, (rac)-3,20-difluoro-10-[(S-methylsulfonimidoyl)methyl]-13,18-dioxa-5,7,24-triazatetracyclo[17.3.1.1^2,6.1^8,12]pentacosa-1(23),2(25),3,5,8(24),9,11,19,21-nonaene]
- IC50 (DU145 cells): 85 nM
- IC50 (MOLM-13 cells): 27 nM
- IC50 (HeLa-MaTu-ADR cells): 78 nM
- IC50 (Caco-2 cells): 96 nM
- IC50 (NCI-H460 cells): 157 nM

Compound: CC(C)(C)OC(=O)N=S(C)(=O)Cc1cc2cc(c1)OCCCCOc1cc(ccc1F)-c1nc(ncc1F)N2 (racemic) [Example 3, (rac)-tert-butyl [{[3,20-difluoro-13,18-dioxa-5,7,25-triazatetracyclo[17.3.1.1^2,6.1^8,12]pentacosa-1(23),2(25),3,5,8(24),9,11,19,21-nonaen-10-yl]methyl}(methyl)oxido-λ^6-sulfanylidene]carbamate]
- IC50 (DU145 cells): 206 nM
- IC50 (MOLM-13 cells): 108 nM
- IC50 (HeLa-MaTu-ADR cells): 218 nM
- IC50 (Caco-2 cells): 163 nM
- IC50 (NCI-H460 cells): 267 nM

Compound: CS(=N)(=O)Cc1cc2cc(c1)OCCCCOc1cc(ccc1F)-c1nc(ncc1F)N2 (racemic) [Example 4, (rac)-3,20-difluoro-10-[(S-methylsulfonimidoyl)methyl]-13,18-dioxa-5,7,25-triazatetracyclo[17.3.1.1^2,6.1^8,12]pentacosa-1(23),2(25),3,5,8(24),9,11,19,21-nonaene]
- IC50 (DU145 cells): 138 nM
- IC50 (MOLM-13 cells): 20 nM
- IC50 (HeLa-MaTu-ADR cells): 140 nM
- IC50 (Caco-2 cells): 177 nM
- IC50 (NCI-H460 cells): 331 nM

Compound: CC(C)(C)OC(=O)N=S(C)(=O)Cc1cc2cc(c1)OCCCCCOc1cc(ccc1F)-c1nc(ncc1F)N2 (racemic) [Example 5, (rac)-tert-butyl [{[3,21-difluoro-13,19-dioxa-5,7,26-triazatetracyclo[18.3.1.1^2,6.1^8,12]hexacosa-1(24),2(26),3,5,8(25),9,11,20,22-nonaen-10-yl]methyl}(methyl)oxido-λ^6-sulfanylidene]carbamate]
- IC50 (DU145 cells): 585 nM
- IC50 (MOLM-13 cells): 228 nM
- IC50 (HeLa-MaTu-ADR cells): 1000 nM
- IC50 (Caco-2 cells): 658 nM
- IC50 (NCI-H460 cells): 479 nM

Compound: CS(=N)(=O)Cc1cc2cc(c1)OCCCCCOc1cc(ccc1F)-c1nc(ncc1F)N2 (racemic) [Example 6, (rac)-3,21-difluoro-10-[(S-methylsulfonimidoyl)methyl]-13,19-dioxa-5,7,26-triazatetracyclo[18.3.1.1^2,6.1^8,12]hexacosa-1(24),2(26),3,5,8(25),9,11,20,22-nonaene]
- IC50 (DU145 cells): 121 nM
- IC50 (MOLM-13 cells): 140 nM
- IC50 (HeLa-MaTu-ADR cells): 169 nM
- IC50 (Caco-2 cells): 144 nM
- IC50 (NCI-H460 cells): 277 nM

Compound: CS(=N)(=O)Cc1cc2cc(c1)OCCCCOc1c(F)ccc(c1F)-c1nc(ncc1F)N2 (racemic) [Example 8, (rac)-3,20,23-trifluoro-10-[(S-methylsulfonimidoyl)methyl]-13,18-dioxa-5,7,25-triazatetracyclo[17.3.1.1^2,6.1^8,12]pentacosa-1(23),2(25),3,5,8(24),9,11,19,21-nonaene]
- IC50 (DU145 cells): 196 nM
- IC50 (MOLM-13 cells): 45 nM
- IC50 (HeLa-MaTu-ADR cells): 179 nM
- IC50 (Caco-2 cells): 181 nM
- IC50 (NCI-H460 cells): 217 nM

Compound: CS(=N)(=O)Cc1cc2cc(c1)OCCCOc1cc(ccc1F)-c1nc(ncc1F)N2 (racemic) [Example 10, (rac)-3,19-difluoro-10-[(S-methylsulfonimidoyl)methyl]-13,17-dioxa-5,7,24-triazatetracyclo[16.3.1.1^2,6.1^8,12]tetracosa-1(22),2(24),3,5,8(23),9,11,18,20-nonaene]
- IC50 (DU145 cells): 180 nM
- IC50 (MOLM-13 cells): 33 nM
- IC50 (HeLa-MaTu-ADR cells): 155 nM
- IC50 (Caco-2 cells): 159 nM
- IC50 (NCI-H460 cells): 238 nM
